The nature of data set [1]: Stability in USP simulated gastric juice. To be noted: USP SGF pH 1.1, pepsin […], prodrug 20 μg/mL. In kind it is in vitro ADME. The text has this: To minimize the direct inhibitory action of this drug on gastric emptying/gut motility—and resultant nausea—the prodrug should not undergo premature chemical or enzymic cleavage back to the parent drug while within the gut lumen.

The nature of data set [2]: Stability in simulated intestinal juice (FaSSIF). It is filed as in vitro ADME. To be noted: FaSSIF pH 6.5, pancreatin 1%, prodrug 20 μg/mL. The protocol: (§1) To avoid direct interaction between the active drug and the gut microfloral population, the prodrug should not undergo premature chemical or enzymic cleavage back to the parent dug while within the gut lumen. To confirm this the prodrugs were incubated with USP SGF (simulated gastric fluid), FeSSIF (fed state simulated intestinal fluid) and FaSSIF (fasted state simulated intestinal fluid) and remaining prodrug and any generated active drug assayed by use of a qualified LC-MS/MS analytical method.
Method—Prodrug (20 μg/mL) in the FaSSIF cocktail comprising sodium taurocholate 3 mM, lecithin 0.75 mM, NaOH 8.7 mM, NaH2PO4. H2O 28.7 mM, NaCl 106 mM, pancreatin 1% (overall pH 6.5) was incubated for 2 h at 37° C. After acidifying the incubation to stop any reaction the amount of prodrug remaining and drug generated were determined using a qualified LC-MS/MS method.
(§2) To minimize the direct inhibitory action of this drug on gastric emptying/gut motility—and resultant nausea—the prodrug should not undergo premature chemical or enzymic cleavage back to the parent drug while within the gut lumen. To confirm this, the prodrugs were incubated with USP SGF (simulated gastric fluid), FeSSIF (fed state simulated intestinal fluid) and FaSSIF (fasted state simulated intestinal fluid) and remaining prodrug, and any generated active drug, assayed by use of a qualified LC-MS/MS analytical method.
Prodrug (20 μg/mL) in the FaSSIF cocktail comprising sodium taurocholate 3 mM, lecithin 0.75 mM, NaOH 8.7 mM, NaH2PO4. H2O 28.7 mM, NaCl 106 mM, pancreatin 1% (overall pH 6.5) was incubated for 2 h at 37° C. After acidifying the incubation to stop any reaction the amount of prodrug remaining and drug generated were determined using a qualified LC-MS/MS method.
(§3) To avoid direct interaction between the active drug and the gut, the prodrug should not undergo premature chemical or enzymic cleavage back to the parent dug while within the gut lumen. To confirm this the prodrugs were incubated with USP SGF (simulated gastric fluid), FeSSIF (fed state simulated intestinal fluid) and FaSSIF (fasted state simulated intestinal fluid) and remaining prodrug and any generated active drug assayed by use of a qualified LC-MS/MS analytical method.

Data set [3] is described as follows: Stability in simulated intestinal juice (FeSSIF). To be noted: FeSSIF pH 5.0, pancreatin 1%. In kind it is in vitro ADME. The protocol:
as §1
Pancreatin was again added at 1%.
as §2, §3

The conditions of data set [4]: male rats; for Frel: relative bioavailability of donepezil vs dosing donepezil itself, mean. The protocol:
Serial tail vein blood samples were subsequently collected via an indwelling cannuala into EDTA tubes containing a stabilising cocktail (including 6 mg/mL NaF) to prevent post collection enzymic hydrolysis of the prodrug.

For the next data set, the target named is T1, hNav1.1 channel (Homo sapiens, UniProt P35498).
T1 construct: expressed in transfected cells
The data set is described as follows: Blockade of cloned Nav1.1 channels expressed in mammalian cells. In kind it is cell-based. The protocol: Blockade of hNav1.1 channel was measured using a stimulus voltage pattern shown in the diagram below: Voltage potentials are indicated in Table 13. The pulse pattern was repeated twice: before and 5 minutes after TA addition and peak current amplitudes at three test pulses were measured (ITP1, TP11 and ITP12).
Data acquisition and analyses was performed using the lonWorks Quattro™ system operation software (version 2.0.2; Molecular Devices Corporation, Union City, Calif.). Data was corrected for leak current.
The tonic block was calculated as:
% Block (Tonic)=(1−ITP1,TA/ITP1,Control)×100%,
10 Hz Block—the frequency-dependent block at stimulation frequency 10 Hz was calculated as:
% Block (10 Hz)=(1−ITP11, TA/ITP11, Control))×100%,
We define the inactivation state block as decrease in test pulse (TP12) current amplitude due to the conditioning depolarizing pulse (TP11). The inactivation state block was calculated as:
% Block (inactivation state)=(1−(ITP12, TA/[…])×100%,
Concentration-response data for the blocks were fit to an equation of the following form: […]
where [Test] is the concentration of test article, IC50 is the concentration of the test article producing half-maximal inhibition, N is the Hill coefficient, and % Block is the percentage of ion channel current inhibited at each concentration of the test article. Nonlinear least squares fits were solved with the Solver add-in for Excel 2000 (Microsoft, Redmond, Wash.).

The conditions of data set [5]: % of treated patients, cited from earlier work.
Setting [6] is: frequency-dependent block at 10 Hz (TP11), read-out: IC50 10 Hz block.
[7] abbreviates: inactivation state block (TP12), read-out: IC50 Inactivated state.
Setting [8] is: tonic block (TP1), read-out: IC50 Tonic block.

pIC50: −log10 of the molar value. Like-named read-outs stand apart in the source and are kept apart here. Where only a bound is given, the exact number is not on record here.

As to `CCOC(=O)c1ccc(NC(=O)CCCC(=O)OC2=C(CC3CCN(Cc4ccccc4)CC3)Cc3cc(OC)c(OC)cc32)cc1` [Donepezil glutaryl PABA ethyl ester, donepezil[glutaryl-PABA ethyl ester]enol ester], in data set [1], the “Simulated gastric juice (1 h, 37° C.) % active drug generated” value was 2%. The “Simulated intestinal juice (2 h, 37° C.) (FaSSIF) % active drug generated” value in data set [2] was 2%. Moreover, the “Simulated intestinal juice (2 h, 37° C.) (FeSSIF) % active drug generated” value in data set [3] was 1%. Moreover, the Prodrug plasma levels result in data set [4] (oral) was “undetectable”. The compound also showed a Frel in data set [4] of 30%.
In the case of `CCOC(=O)[C@@H](NC(=O)CCCC(=O)OC1=C(CC2CCN(Cc3ccccc3)CC2)Cc2cc(OC)c(OC)cc21)C(C)C` [Donepezil glutaryl valine ethyl ester, donepezil[glutaryl-(S)-valineethyl ester]enol ester], the “Simulated gastric juice (1 h, 37° C.) % active drug generated” value in data set [1] is given as 2%. For the same compound, the “Simulated intestinal juice (2 h, 37° C.) (FaSSIF) % active drug generated” value in data set [2] is given as 11%. In data set [3], the “Simulated intestinal juice (2 h, 37° C.) (FeSSIF) % active drug generated” value was 3%. For the same compound, the “plasma persistence of donepezil” value in data set [4] (oral) is given as “not in evidence”. Also, in data set [4], the Frel is reported as 31%.
Broadly, the pIC50 is −log10 of the IC50, conventionally taken in molar units. In the case of `CCCNCC(COc1ccccc1C(=O)CCc1ccccc1)OC(=O)CCCC(=O)Nc1ccc(C(=O)O)cc1` (centres unmarked) [Propafenone glutaryl PABA ester, Propafenone (glutaryl-PABA) ester], the pIC50 on hNav1.1 channel (setting [6]) is 4.02; on hNav1.1 channel (setting [7]), 4.49; at hNav1.1 channel (setting [8]), 3.33.
As to `CCCNCC(COc1ccccc1C(=O)CCc1ccccc1)OC(=O)CCC(=O)N[C@H](C(=O)O)C(C)C` (stereo partly drawn) [Propafenone succinyl valine ester, Propafenone[succinyl-(S)-valine]ester], the pIC50 at hNav1.1 channel (setting [6]) was 4.16; on hNav1.1 channel (setting [7]), 4.43; on hNav1.1 channel (setting [8]) it was 3.82.
`Cc1cn([C@H]2C=C[C@@H](CO)O2)c(=O)[nH]c1=O` [Stavudine]: in data set [5], the incidence of diarrhoea is 44%; the “incidence of nausea and vomiting” value was 39-44%.
As to `CC(C)CN(C[C@@H](O)[C@H](Cc1ccccc1)NC(=O)O[C@H]1CCOC1)S(=O)(=O)c1ccc(N)cc1` [amprenavir], in data set [5], the incidence of diarrhoea was 39%, the incidence of nausea is reported as 74% and the incidence of vomiting is 34%.
Take `C#Cc1cccc(Nc2ncnc3cc(OCCOC)c(OCCOC)cc23)c1` [erlotinib]: the incidence of diarrhoea in data set [5] is reported as 50-60%.
`CCCCN1C[C@H](O)[C@@H](O)[C@H](O)[C@H]1CO` [miglustat]: in data set [5], the incidence of diarrhoea entry is “up to 89%”.
On to `Cc1ccc(Nc2nccc(N(C)c3ccc4c(C)n(C)nc4c3)n2)cc1S(N)(=O)=O` [pazopanib], for which the values for the incidence of diarrhoea in data set [5] and in data set [5] (listed as pazapanib) were roughly 50% and greater than 50%, respectively.
Regarding `COc1ccc(C(CN(C)C)C2(O)CCCCC2)cc1` (centres unmarked) [venlefaxine, venlafaxine], the incidence of nausea result in data set [5] is reported as “Up to 30%”.

Source of the values: US20120202756A1, “USE OF PRODRUGS TO AVOID GI MEDIATED ADVERSE EVENTS” (priority 2009, published 2012).
